≈ marks a conversion by molar mass, not a printed value. Read-outs that look alike come from different tables or passages of the source.
Assays:
[1] = test system: Mutant-11 of Enterococcus fecalis NR 31975; test: microbe, parasite or virus in culture; format: cell-based
[2] = test system: Enterococcus faecium E417-HM-965; test: MIC, broth microdilution in TSB; format: cell-based; details: TSB
In short: (§1)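 CLSI broth microdilution: overnight agar-grown enterococci adjusted to 0.5 McFarland, diluted in TSB to about 5×10^5 CFU/mL, then exposed to serially diluted compounds. Incubated aerobically at 37 °C for 18-20 h. MIC is the lowest concentration giving no visible growth.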

[3] = test system: Enterococcus fecalis Strain MMH594-NR31975; test: MIC, broth microdilution in TSB; format: cell-based; details: TSB
In short: as §1

[4] = test system: Enterococcus faecalis—S613 HM-334; test: MIC, broth microdilution in TSB; format: cell-based; details: TSB
In short: as §1

[5] = test system: Enterococcus faecium Patient #3-1 NR-31912; test: MIC, broth microdilution in TSB; format: cell-based; details: TSB
In short: as §1

[6] = test system: Mutant-8 of Enterococcus fecalis NR 31975; test: microbe, parasite or virus in culture; format: cell-based
[7] = test system: Mutant-2 of Enterococcus fecalis NR 31975; test: microbe, parasite or virus in culture; format: cell-based
[8] = test system: Staphylococcus epidermidis NRS 101; test: MIC against Staphylococci, broth microdilution; format: cell-based; details: TSB
In short: (§2)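 CLSI broth microdilution in tryptone soy broth, inoculum about 5×10^5 CFU/mL from overnight agar cultures at 0.5 McFarland, with serially diluted compound. Plates were incubated aerobically at 37° C for 18-20 h. MIC was the lowest concentration with no visible growth.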

[9] = test system: Mutant-4 of Enterococcus fecalis NR 31975; test: microbe, parasite or virus in culture; format: cell-based
[10] = test system: Lactobacillus casei ATCC 334; test: MIC against human normal gut microbiota; format: cell-based; details: MRS broth, 5% CO2, 48 hours
In short: (§3)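 Broth microdilution with ~5×10^5 CFU/ml inoculum from 0.5 McFarland suspension; Bifidobacterium and Bacteroides in supplemented BHI broth, anaerobic, Lactobacillus in MRS broth under 5% CO2. Plates with serial compound dilutions incubated 48 h at 37° C.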

[11] = test system: Lactobacillus gasseri EX336960VC03 HIM-400; test: MIC against human normal gut microbiota; format: cell-based; details: MRS broth, 5% CO2, 48 hours
In short: as §3

[12] = test system: Bifidobacterium breve—JCP7499 HIM 1120; test: MIC against human normal gut microbiota; format: cell-based; details: BHIS broth, anaerobic, 48 hours
In short: as §3

[13] = test system: Bacteroides fragilis—CL07T00C01 HIM-709; test: MIC against human normal gut microbiota; format: cell-based; details: BHIS broth, anaerobic, 48 hours
In short: as §3

[14] = test system: Bacteroides dorei—CL02T12C06 HM-719; test: MIC against human normal gut microbiota; format: cell-based; details: BHIS broth, anaerobic, 48 hours
In short: as §3

[15] = test system: Bifidobacterium longum subsp. Longum—44B HM 845; test: MIC against human normal gut microbiota; format: cell-based; details: BHIS broth, anaerobic, 48 hours
In short: as §3

[16] = test system: Mutant-3 of Enterococcus fecalis NR 31975; test: microbe, parasite or virus in culture; format: cell-based
[17] = test system: Mutant-5 of Enterococcus fecalis NR 31975; test: microbe, parasite or virus in culture; format: cell-based
[18] = test system: Mutant-6 of Enterococcus fecalis NR 31975; test: microbe, parasite or virus in culture; format: cell-based
[19] = test system: Mutant-9 of Enterococcus fecalis NR 31975; test: microbe, parasite or virus in culture; format: cell-based
[20] = test system: Mutant-13 of Enterococcus fecalis NR 31975; test: microbe, parasite or virus in culture; format: cell-based
[21] = test system: MRSA NRS 384 (MRSA USA300); test: MIC against Staphylococci, broth microdilution; format: cell-based, Staphylococcus aureus; details: TSB
In short: as §2

[22] = test system: Mutant-7 of Enterococcus fecalis NR 31975; test: microbe, parasite or virus in culture; format: cell-based
[23] = test system: Mutant-15 of Enterococcus fecalis NR 31975; test: microbe, parasite or virus in culture; format: cell-based
[24] = test system: Mutant-12 of Enterococcus fecalis NR 31975; test: microbe, parasite or virus in culture; format: cell-based
[25] = test system: Mutant-14 of Enterococcus fecalis NR 31975; test: microbe, parasite or virus in culture; format: cell-based
[26] = Enterococcus faecium, E417HM965, Table 1, read-out: MIC
[27] = Enterococcus faecium, E417HM965, Table 7, read-out: MIC in TSB
[28] = Enterococcus, Table 1, read-out: MIC
[29] = Enterococcus, Table 7, read-out: MIC in TSB
[30] = Enterococcus faecium, Table 1, read-out: MIC
[31] = Enterococcus faecium, Table 7, read-out: MIC in TSB
[32] = Staphylococcus epidermidis, NRS101, read-out: MIC
[33] = Lacticaseibacillus casei, ATCC334, read-out: MIC
[34] = Lactobacillus gasseri, read-out: MIC
[35] = Bifidobacterium longum, read-out: MIC
[36] = Staphylococcus aureus, read-out: MIC

## CC(C)=CC(=O)Nc1nnc(S(N)(=O)=O)s1 [CAI0016, 3-Methyl-N-(5-sulfamoyl-1,3,4-thiadiazol-2-yl) but-2-enamide]
[1]; Mutant-11
  MIC: 4 µg/mL (≈ 15.2 µM)
[2]; Table 1
  MIC: 0.25 µg/mL (≈ 0.953 µM)
[3]; Table 1
  MIC: 0.5 µg/mL (≈ 1.91 µM)
[3]; Table 7
  MIC in TSB: 0.25 µg/mL (≈ 0.953 µM)
[4]; Table 1
  MIC: 0.5 µg/mL (≈ 1.91 µM)
[4]; Table 7
  MIC in TSB: 0.25 µg/mL (≈ 0.953 µM)
[5]; Table 1
  MIC: 1 µg/mL (≈ 3.81 µM)
[5]; Table 7
  MIC in TSB: 0.5 µg/mL (≈ 1.91 µM)
[6]; Mutant-8
  MIC: 4 µg/mL (≈ 15.2 µM)
[7]; Mutant-2
  MIC: 8 µg/mL (≈ 30.5 µM)
[8]
  MIC: >64 µg/mL
[9]; Mutant-4
  MIC: 8 µg/mL (≈ 30.5 µM)
[10]
  MIC: >64 µg/mL
[11]
  MIC: >64 µg/mL
[12]
  MIC: >64 µg/mL
[13]
  MIC: >64 µg/mL
[14]
  MIC: >64 µg/mL
[15]
  MIC: >64 µg/mL
[16]; Mutant-3
  MIC: 4 µg/mL (≈ 15.2 µM)
[17]; Mutant-5
  MIC: 4 µg/mL (≈ 15.2 µM)
[18]; Mutant-6
  MIC: 16 µg/mL (≈ 61 µM)
[19]; Mutant-9
  MIC: 4 µg/mL (≈ 15.2 µM)
[20]; Mutant-13
  MIC: 4 µg/mL (≈ 15.2 µM)
[21]
  MIC: >64 µg/mL
[22]; Mutant-7
  MIC: 4 µg/mL (≈ 15.2 µM)
[23]; Mutant-15
  MIC: 8 µg/mL (≈ 30.5 µM)
[24]; Mutant-12
  MIC: 8 µg/mL (≈ 30.5 µM)
[25]; Mutant-14
  MIC: 4 µg/mL (≈ 15.2 µM)

## CC(C)C(=O)Nc1nnc(S(N)(=O)=O)s1 [CAI0011, N-(5-Sulfamoyl-1,3,4-thiadiazol-2-yl) isobutyramide]
[2]; [26]
  MIC: 1 µg/mL (≈ 4 µM)
[2]; [27]
  MIC: 1 µg/mL (≈ 4 µM)
[3]; [28]
  MIC: 2 µg/mL (≈ 7.99 µM)
[3]; [29]
  MIC: 2 µg/mL (≈ 7.99 µM)
[4]; [28]
  MIC: 2 µg/mL (≈ 7.99 µM)
[4]; [29]
  MIC: 2 µg/mL (≈ 7.99 µM)
[5]; [30]
  MIC: 1 µg/mL (≈ 4 µM)
[5]; [31]
  MIC: 1 µg/mL (≈ 4 µM)
[8]; [32]
  MIC: > 64 µg/mL
[10]; [33]
  MIC: > 64 µg/mL
[11]; [34]
  MIC: > 64 µg/mL
[12]; Bifidobacterium, read-out: MIC
  MIC: > 64 µg/mL
[13]; Bacteroides, read-out: MIC
  MIC: > 64 µg/mL
[14]; Bacteroides, read-out: MIC
  MIC: > 64 µg/mL
[15]; [35]
  MIC: > 64 µg/mL
[21]; [36]
  MIC: > 64 µg/mL

## CC(=O)Nc1nnc(S(N)(=O)=O)s1 [Acetazolamide, reference compound]
[1]; Enterococcus
  MIC: 16 µg/mL (≈ 72 µM)
[2]; [26]
  MIC: 2 µg/mL (≈ 9 µM)
[2]; [27]
  MIC: 2 µg/mL (≈ 9 µM)
[3]; [28]
  MIC: 4 µg/mL (≈ 18 µM)
[3]; [29]
  MIC: 4 µg/mL (≈ 18 µM)
[4]; [28]
  MIC: 2 µg/mL (≈ 9 µM)
[4]; [29]
  MIC: 2 µg/mL (≈ 9 µM)
[5]; [30]
  MIC: 2 µg/mL (≈ 9 µM)
[5]; [31]
  MIC: 2 µg/mL (≈ 9 µM)
[6]; Enterococcus
  MIC: 32 µg/mL (≈ 144 µM)
[7]; Enterococcus
  MIC: 16 µg/mL (≈ 72 µM)
[8]; [32]
  MIC: > 64 µg/mL
[9]; Enterococcus
  MIC: 32 µg/mL (≈ 144 µM)
[10]; [33]
  MIC: > 64 µg/mL
[11]; [34]
  MIC: > 64 µg/mL
[12]; Bifidobacterium, read-out: MIC
  MIC: > 64 µg/mL
[13]; Bacteroides, read-out: MIC
  MIC: > 64 µg/mL
[14]; Bacteroides, read-out: MIC
  MIC: > 64 µg/mL
[15]; [35]
  MIC: > 64 µg/mL
[16]; Enterococcus
  MIC: 32 µg/mL (≈ 144 µM)
[17]; Enterococcus
  MIC: 32 µg/mL (≈ 144 µM)
[18]; Enterococcus
  MIC: 32 µg/mL (≈ 144 µM)
[19]; Enterococcus
  MIC: 16 µg/mL (≈ 72 µM)
[20]; Enterococcus
  MIC: 32 µg/mL (≈ 144 µM)
[21]; [36]
  MIC: > 64 µg/mL
[22]; Enterococcus
  MIC: 16 µg/mL (≈ 72 µM)
[23]; Enterococcus
  MIC: 32 µg/mL (≈ 144 µM)
[24]; Enterococcus
  MIC: 32 µg/mL (≈ 144 µM)
[25]; Enterococcus
  MIC: 32 µg/mL (≈ 144 µM)

## CC(C)(C)C(=O)Nc1nnc(S(N)(=O)=O)s1 [CAI0010, N-(5-Sulfamoyl-1,3,4-thiadiazol-2-yl) pivalamide]
[1]; Enterococcus
  MIC: 4 µg/mL (≈ 15.1 µM)
[2]; [26]
  MIC: 0.5 µg/mL (≈ 1.89 µM)
[2]; [27]
  MIC: 0.25 µg/mL (≈ 0.946 µM)
[3]; [28]
  MIC: 1 µg/mL (≈ 3.78 µM)
[3]; [29]
  MIC: 0.25 µg/mL (≈ 0.946 µM)
[4]; [28]
  MIC: 0.5 µg/mL (≈ 1.89 µM)
[4]; [29]
  MIC: 0.125 µg/mL (≈ 0.473 µM)
[5]; [30]
  MIC: 1 µg/mL (≈ 3.78 µM)
[5]; [31]
  MIC: 0.25 µg/mL (≈ 0.946 µM)
[6]; Enterococcus
  MIC: 8 µg/mL (≈ 30.3 µM)
[7]; Enterococcus
  MIC: 8 µg/mL (≈ 30.3 µM)
[8]; [32]
  MIC: > 64 µg/mL
[9]; Enterococcus
  MIC: 8 µg/mL (≈ 30.3 µM)
[10]; [33]
  MIC: > 64 µg/mL
[11]; [34]
  MIC: > 64 µg/mL
[12]; Bifidobacterium, read-out: MIC
  MIC: > 64 µg/mL
[13]; Bacteroides, read-out: MIC
  MIC: > 64 µg/mL
[14]; Bacteroides, read-out: MIC
  MIC: > 64 µg/mL
[15]; [35]
  MIC: > 64 µg/mL
[16]; Enterococcus
  MIC: 4 µg/mL (≈ 15.1 µM)
[17]; Enterococcus
  MIC: 4 µg/mL (≈ 15.1 µM)
[18]; Enterococcus
  MIC: 16 µg/mL (≈ 60.5 µM)
[19]; Enterococcus
  MIC: 8 µg/mL (≈ 30.3 µM)
[20]; Enterococcus
  MIC: 4 µg/mL (≈ 15.1 µM)
[21]; [36]
  MIC: > 64 µg/mL
[22]; Enterococcus
  MIC: 4 µg/mL (≈ 15.1 µM)
[23]; Enterococcus
  MIC: 4 µg/mL (≈ 15.1 µM)
[24]; Enterococcus
  MIC: 8 µg/mL (≈ 30.3 µM)
[25]; Enterococcus
  MIC: 4 µg/mL (≈ 15.1 µM)
